Data taken from the supplement of paper PMC10307832.

Tests used:
Assay in all cases: relative viability (nuclei count vs DMSO), 5 days (fraction); higher = more cells survive
[1] = system: NCI-H1944
How it was run: (§1)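 A single step with final 0.05% Triton X-100, 1% formaldehyde and 1 ug/ml Hoechst fixed the cells and stained nuclei 5 days after treatment. Lung cancer cell lines in 1536-well plates had been treated by pin tool the day after seeding with one drug alone or a fixed anchor-drug dose plus five library-drug doses (not always all listed) in √10 steps, and nuclei were counted on 4× images. Relative viability is the ratio of nuclei in treated wells to nuclei in vehicle wells, taken as the median of duplicate plates.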

[2] = system: NCI-H520
How it was run: as §1

[3] = system: HCC-827
How it was run: as §1

[4] = system: EMC-BAC-2
How it was run: as §1

[5] = system: NCI-H1563
How it was run: as §1

[6] = system: LCLC-97TM1
How it was run: as §1

[7] = system: NCI-H2085
How it was run: as §1

[8] = system: NCI-H23
How it was run: as §1

[9] = system: HCC-44
How it was run: as §1

[10] = system: NCI-H650
How it was run: as §1

[11] = system: NCI-H1993
How it was run: as §1

[12] = system: NCI-H1793
How it was run: as §1

[13] = system: NCI-H2087
How it was run: as §1

[14] = system: NCI-H322M
How it was run: as §1

[15] = system: EPLC-272H
How it was run: as §1

[16] = system: NCI-H1355
How it was run: as §1

[17] = system: H3255
How it was run: as §1

[18] = system: NCI-H2405
How it was run: as §1

[19] = system: UMC-11
How it was run: as §1

[20] = system: LCLC-103H
How it was run: as §1

[21] = system: SK-MES-1
How it was run: as §1

[22] = system: NCI-H1651
How it was run: as §1

[23] = system: NCI-H1395
How it was run: as §1

**Q.** How did the relative viability ([1]; first compound 0.04 µM) turn out when COc1cc(N2CCC(C(N)=O)CC2)ccc1Nc1nc(N)c(Cl)c(Nc2ccccc2S(=O)(=O)C(C)C)n1 [HG-5-88-01] + C[C@]1(O)C[C@@H](c2nc(-c3ccc4ccc(-c5ccccc5)nc4c3)c3c(N)nccn32)C1 [Linsitinib] (partner 1 µM) was run?
**A.** 1.14

**Q.** What about the relative viability ([1]; first compound 0.1265 µM) of the same molecule?
**A.** 1.19

**Q.** What about the relative viability ([1]; first compound 0.4 µM) of the same molecule?
**A.** 1.19

**Q.** And the relative viability ([1]; first compound 1.265 µM)?
**A.** 0.803

**Q.** And the relative viability ([1]; first compound 4 µM)?
**A.** 1.31

**Q.** And the relative viability ([2]; first compound 0.04 µM)?
**A.** 0.926

**Q.** And the relative viability ([2]; first compound 0.1265 µM)?
**A.** 0.832

**Q.** And the relative viability ([2]; first compound 0.4 µM)?
**A.** 0.689

**Q.** And the relative viability ([2]; first compound 1.265 µM)?
**A.** 1.18

**Q.** What about the relative viability ([2]; first compound 4 µM) of the same molecule?
**A.** 1.14

**Q.** What about the relative viability ([3]; first compound 0.04 µM) of the same molecule?
**A.** 0.953

**Q.** What about the relative viability ([3]; first compound 0.1265 µM) of the same molecule?
**A.** 1.04

**Q.** And the relative viability ([3]; first compound 0.4 µM)?
**A.** 0.934

**Q.** What about the relative viability ([3]; first compound 1.265 µM) of the same molecule?
**A.** 0.955

**Q.** And the relative viability ([3]; first compound 4 µM)?
**A.** 0.69

**Q.** What about the relative viability ([4]; first compound 0.04 µM) of the same molecule?
**A.** 0.79

**Q.** And the relative viability ([4]; first compound 0.1265 µM)?
**A.** 0.849

**Q.** And the relative viability ([4]; first compound 0.4 µM)?
**A.** 0.771

**Q.** And the relative viability ([4]; first compound 1.265 µM)?
**A.** 0.758

**Q.** And the relative viability ([4]; first compound 4 µM)?
**A.** 0.851

**Q.** And the relative viability ([5]; first compound 0.04 µM)?
**A.** 1.1

**Q.** And the relative viability ([5]; first compound 0.1265 µM)?
**A.** 1.17

**Q.** And the relative viability ([5]; first compound 0.4 µM)?
**A.** 1.23

**Q.** What about the relative viability ([5]; first compound 1.265 µM) of the same molecule?
**A.** 1.21

**Q.** What about the relative viability ([5]; first compound 4 µM) of the same molecule?
**A.** 1.21

**Q.** What about the relative viability ([6]; first compound 0.04 µM) of the same molecule?
**A.** 0.183

**Q.** And the relative viability ([6]; first compound 0.1265 µM)?
**A.** 0.201

**Q.** What about the relative viability ([6]; first compound 0.4 µM) of the same molecule?
**A.** 0.18

**Q.** What about the relative viability ([6]; first compound 1.265 µM) of the same molecule?
**A.** 0.152

**Q.** And the relative viability ([6]; first compound 4 µM)?
**A.** 0.158

**Q.** And the relative viability ([7]; first compound 0.04 µM)?
**A.** 0.913

**Q.** And the relative viability ([7]; first compound 0.1265 µM)?
**A.** 0.924

**Q.** What about the relative viability ([7]; first compound 0.4 µM) of the same molecule?
**A.** 0.809

**Q.** And the relative viability ([7]; first compound 1.265 µM)?
**A.** 0.748

**Q.** And the relative viability ([7]; first compound 4 µM)?
**A.** 0.92

**Q.** And the relative viability ([8]; first compound 0.04 µM)?
**A.** 0.628

**Q.** What about the relative viability ([8]; first compound 0.1265 µM) of the same molecule?
**A.** 0.621

**Q.** And the relative viability ([8]; first compound 0.4 µM)?
**A.** 0.652

**Q.** And the relative viability ([8]; first compound 1.265 µM)?
**A.** 0.73

**Q.** And the relative viability ([8]; first compound 4 µM)?
**A.** 0.61

**Q.** What about the relative viability ([9]; first compound 0.04 µM) of the same molecule?
**A.** 0.806

**Q.** What about the relative viability ([9]; first compound 0.1265 µM) of the same molecule?
**A.** 0.672

**Q.** What about the relative viability ([9]; first compound 0.4 µM) of the same molecule?
**A.** 0.56

**Q.** And the relative viability ([9]; first compound 1.265 µM)?
**A.** 0.648

**Q.** And the relative viability ([9]; first compound 4 µM)?
**A.** 0.751

**Q.** And the relative viability ([10]; first compound 0.04 µM)?
**A.** 1.01

**Q.** And the relative viability ([10]; first compound 0.1265 µM)?
**A.** 0.985

**Q.** And the relative viability ([10]; first compound 0.4 µM)?
**A.** 0.835

**Q.** And the relative viability ([10]; first compound 1.265 µM)?
**A.** 0.936

**Q.** What about the relative viability ([10]; first compound 4 µM) of the same molecule?
**A.** 0.492

**Q.** What about the relative viability ([11]; first compound 0.04 µM) of the same molecule?
**A.** 0.807

**Q.** And the relative viability ([11]; first compound 0.1265 µM)?
**A.** 0.697

**Q.** What about the relative viability ([11]; first compound 0.4 µM) of the same molecule?
**A.** 0.732

**Q.** And the relative viability ([11]; first compound 1.265 µM)?
**A.** 0.61

**Q.** What about the relative viability ([11]; first compound 4 µM) of the same molecule?
**A.** 0.722

**Q.** What about the relative viability ([12]; first compound 0.1265 µM) of the same molecule?
**A.** 1.05

**Q.** And the relative viability ([12]; first compound 0.4 µM)?
**A.** 0.856

**Q.** And the relative viability ([12]; first compound 1.265 µM)?
**A.** 0.809

**Q.** What about the relative viability ([12]; first compound 4 µM) of the same molecule?
**A.** 1.18

**Q.** And the relative viability ([13]; first compound 0.04 µM)?
**A.** 0.85

**Q.** And the relative viability ([13]; first compound 0.1265 µM)?
**A.** 1.07

**Q.** And the relative viability ([13]; first compound 0.4 µM)?
**A.** 0.912

**Q.** And the relative viability ([13]; first compound 1.265 µM)?
**A.** 0.964

**Q.** What about the relative viability ([13]; first compound 4 µM) of the same molecule?
**A.** 0.888

**Q.** What about the relative viability ([14]; first compound 0.04 µM) of the same molecule?
**A.** 0.892

**Q.** And the relative viability ([14]; first compound 0.1265 µM)?
**A.** 0.922

**Q.** What about the relative viability ([14]; first compound 0.4 µM) of the same molecule?
**A.** 1.01

**Q.** And the relative viability ([14]; first compound 1.265 µM)?
**A.** 0.657

**Q.** What about the relative viability ([14]; first compound 4 µM) of the same molecule?
**A.** 0.858

**Q.** And the relative viability ([15]; first compound 0.04 µM)?
**A.** 1.09

**Q.** What about the relative viability ([15]; first compound 0.1265 µM) of the same molecule?
**A.** 1.25

**Q.** And the relative viability ([15]; first compound 0.4 µM)?
**A.** 1.38

**Q.** What about the relative viability ([15]; first compound 1.265 µM) of the same molecule?
**A.** 1.02

**Q.** What about the relative viability ([15]; first compound 4 µM) of the same molecule?
**A.** 0.264

**Q.** What about the relative viability ([16]; first compound 0.04 µM) of the same molecule?
**A.** 0.863

**Q.** And the relative viability ([16]; first compound 0.1265 µM)?
**A.** 0.85

**Q.** What about the relative viability ([16]; first compound 0.4 µM) of the same molecule?
**A.** 0.864

**Q.** And the relative viability ([16]; first compound 1.265 µM)?
**A.** 0.705

**Q.** And the relative viability ([16]; first compound 4 µM)?
**A.** 0.767

**Q.** And the relative viability ([17]; first compound 0.04 µM)?
**A.** 1.03

**Q.** What about the relative viability ([17]; first compound 0.1265 µM) of the same molecule?
**A.** 0.913

**Q.** And the relative viability ([17]; first compound 0.4 µM)?
**A.** 0.939

**Q.** And the relative viability ([17]; first compound 4 µM)?
**A.** 0.734

**Q.** And the relative viability ([18]; first compound 0.04 µM)?
**A.** 1.06

**Q.** And the relative viability ([18]; first compound 0.1265 µM)?
**A.** 1.01

**Q.** What about the relative viability ([18]; first compound 0.4 µM) of the same molecule?
**A.** 0.807

**Q.** And the relative viability ([18]; first compound 1.265 µM)?
**A.** 0.714

**Q.** And the relative viability ([18]; first compound 4 µM)?
**A.** 1.02

**Q.** What about the relative viability ([19]; first compound 0.04 µM) of the same molecule?
**A.** 1.03

**Q.** What about the relative viability ([19]; first compound 0.1265 µM) of the same molecule?
**A.** 0.931

**Q.** What about the relative viability ([19]; first compound 0.4 µM) of the same molecule?
**A.** 0.698

**Q.** What about the relative viability ([19]; first compound 1.265 µM) of the same molecule?
**A.** 1.01

**Q.** And the relative viability ([19]; first compound 4 µM)?
**A.** 1.1

**Q.** And the relative viability ([20]; first compound 0.04 µM)?
**A.** 0.986

**Q.** What about the relative viability ([20]; first compound 0.1265 µM) of the same molecule?
**A.** 1.18

**Q.** What about the relative viability ([20]; first compound 0.4 µM) of the same molecule?
**A.** 1.03

**Q.** What about the relative viability ([20]; first compound 1.265 µM) of the same molecule?
**A.** 1.03

**Q.** And the relative viability ([20]; first compound 4 µM)?
**A.** 1.21

**Q.** And the relative viability ([21]; first compound 0.04 µM)?
**A.** 1.02

**Q.** And the relative viability ([21]; first compound 0.1265 µM)?
**A.** 1.03

**Q.** And the relative viability ([21]; first compound 0.4 µM)?
**A.** 1.08

**Q.** And the relative viability ([21]; first compound 1.265 µM)?
**A.** 1.04

**Q.** And the relative viability ([21]; first compound 4 µM)?
**A.** 1.14

**Q.** And the relative viability ([22]; first compound 0.04 µM)?
**A.** 1.02

**Q.** And the relative viability ([22]; first compound 0.1265 µM)?
**A.** 1.09

**Q.** And the relative viability ([22]; first compound 0.4 µM)?
**A.** 0.991

**Q.** And the relative viability ([22]; first compound 1.265 µM)?
**A.** 1.07

**Q.** What about the relative viability ([22]; first compound 4 µM) of the same molecule?
**A.** 1.19

**Q.** And the relative viability ([23]; first compound 0.04 µM)?
**A.** 1.13

**Q.** What about the relative viability ([23]; first compound 0.1265 µM) of the same molecule?
**A.** 1.02

**Q.** And the relative viability ([23]; first compound 0.4 µM)?
**A.** 1.07

**Q.** What about the relative viability ([23]; first compound 1.265 µM) of the same molecule?
**A.** 0.856

**Q.** What about the relative viability ([23]; first compound 4 µM) of the same molecule?
**A.** 1.09
